Source: the supplement of paper PMC5908809

Tests used:
[1] = test system: normal NK cells expanded with K562-aAPC; assay: percent inhibition of viability; higher = more inhibition; details: 72 h, IL-2 2.5 ng/mL
Experimental: (§1)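 Drug sensitivity and resistance testing on K562-aAPC-expanded normal NK cells: 5 concentrations (10-fold steps over a 10,000-fold range), 72 h at 37 °C, viability by CellTiter-Glo normalised to DMSO and benzethonium chloride controls; DSS from the fitted curve.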

[2] = test system: normal NK cells expanded with K562-aAPC; assay: drug sensitivity score (DSS) (DSS units); higher = more sensitive; extreme values may be limits of the assay; details: 72 h; IL-2 2.5 ng/mL
Experimental: as §1

NK-YS (IL-2 2.5 ng/mL) [3] = assay: percent inhibition of viability; higher = more inhibition; details: 72 h
KHYG-1 (IL-2 2.5 ng/mL) [4] = assay: as above; details: 72 h
[5] = test system: normal primary NK cells, pool 3 (3 donors) (IL-2 2.5 ng/mL); assay: as above; details: 72 h
KAI3 (IL-2 2.5 ng/mL) [6] = assay: as above; details: 72 h
NK-92 (IL-2 2.5 ng/mL) [7] = assay: as above; details: 72 h
[8] = test system: normal primary NK cells, pool 1 (3 donors), resting (IL-2 0 ng/mL); assay: as above; details: 72 h
[9] = test system: normal primary NK cells, pool 1 (3 donors) (IL-2 2.5 ng/mL); assay: as above; details: 72 h
NKL (IL-2 2.5 ng/mL) [10] = assay: as above; details: 72 h
YT (IL-2 2.5 ng/mL) [11] = assay: as above; details: 72 h
[12] = test system: normal primary NK cells, pool 2 (3 donors) (IL-2 2.5 ng/mL); assay: as above; details: 72 h
IMC-1 (IL-2 20 ng/mL) [13] = assay: as above; details: 72 h
DERL-7 (IL-2 2.5 ng/mL) [14] = assay: as above; details: 72 h
SNK-6 (IL-2 2.5 ng/mL) [15] = assay: as above; details: 72 h
NK-YS (IL-2 2.5 ng/mL) [16] = assay: drug sensitivity score (DSS) (DSS units); higher = more sensitive; extreme values may be limits of the assay; details: 72 h
KHYG-1 (IL-2 2.5 ng/mL) [17] = assay: as above; details: 72 h
[18] = test system: normal primary NK cells, pool 3 (3 donors) (IL-2 2.5 ng/mL); assay: as above; details: 72 h
KAI3 (IL-2 2.5 ng/mL) [19] = assay: as above; details: 72 h
NK-92 (IL-2 2.5 ng/mL) [20] = assay: as above; details: 72 h
[21] = test system: normal primary NK cells, pool 1 (3 donors), resting (IL-2 0 ng/mL); assay: as above; details: 72 h
[22] = test system: normal primary NK cells, pool 1 (3 donors) (IL-2 2.5 ng/mL); assay: as above; details: 72 h
NKL (IL-2 2.5 ng/mL) [23] = assay: as above; details: 72 h
YT (IL-2 2.5 ng/mL) [24] = assay: as above; details: 72 h
[25] = test system: normal primary NK cells, pool 2 (3 donors) (IL-2 2.5 ng/mL); assay: as above; details: 72 h
IMC-1 (IL-2 20 ng/mL) [26] = assay: as above; details: 72 h
DERL-7 (IL-2 2.5 ng/mL) [27] = assay: as above; details: 72 h
SNK-6 (IL-2 2.5 ng/mL) [28] = assay: as above; details: 72 h

CO[C@H]1C[C@@H]2CC[C@@H](C)[C@@](O)(O2)C(=O)C(=O)N2CCCC[C@H]2C(=O)O[C@H]([C@H](C)C[C@@H]2CC[C@@H](O)[C@H](OC)C2)CC(=O)[C@H](C)/C=C(\C)[C@@H](O)[C@@H](OC)C(=O)[C@H](C)C[C@H](C)/C=C/C=C/C=C/1C [Sirolimus] (max concentration tested 100 nM)
percent inhibition of viability [%]
Details | 0.01 nM | 0.1 nM | 1 nM | 10 nM | 100 nM
DERL-7 (IL-2 2.5 ng/mL) [14] | 1.91 | 1.51 | 7.44 | 38.3 | 55.7
IMC-1 (IL-2 20 ng/mL) [13] | -3.21 | 1.18 | -3.68 | -15.7 | -35.8
KAI3 (IL-2 2.5 ng/mL) [6] | -2.33 | -1.67 | 15.9 | 44.7 | 54.9
KHYG-1 (IL-2 2.5 ng/mL) [4] | -2.67 | 2.99 | 5.43 | 47.1 | 73.8
NK-92 (IL-2 2.5 ng/mL) [7] | -4.22 | 6.09 | 10.4 | 22 | 41.1
NK-YS (IL-2 2.5 ng/mL) [3] | -0.35 | 1.64 | 29.4 | 54.6 | 58.5
NKL (IL-2 2.5 ng/mL) [10] | 10.2 | 24.2 | 45.2 | 58.8 | 68.7
SNK-6 (IL-2 2.5 ng/mL) [15] | 7.11 | 11.7 | 26.8 | 58 | 53.6
YT (IL-2 2.5 ng/mL) [11] | -0.6 | 3.68 | 8.62 | 48.9 | 50
[1] | -3.63 | -1.36 | 3.81 | 13.8 | 18.7
[5] | -9.48 | -6.09 | 3.92 | 6.87 | 10.3
[8] | 1.62 | -12 | 3.7 | 1.9 | 13.7
[9] | 0.77 | -8.98 | 3.92 | 5.36 | 11.1
[12] | -8.36 | 2 | 15.3 | 16.1 | 24.9

Details | drug sensitivity score
DERL-7 (IL-2 2.5 ng/mL) [27] | 8.02
IMC-1 (IL-2 20 ng/mL) [26] | 0
KAI3 (IL-2 2.5 ng/mL) [19] | 10
KHYG-1 (IL-2 2.5 ng/mL) [17] | 9.94
NK-92 (IL-2 2.5 ng/mL) [20] | 4.93
NK-YS (IL-2 2.5 ng/mL) [16] | 13.8
NKL (IL-2 2.5 ng/mL) [23] | 19.3
SNK-6 (IL-2 2.5 ng/mL) [28] | 13.6
YT (IL-2 2.5 ng/mL) [24] | 10.3
[2] | 1.68
[18] | 0
[21] | 0.29
[22] | 0.01
[25] | 3.82

Cc1c(C(=O)Nc2ccc(N3C[C@@H](C)O[C@@H](C)C3)nc2)cccc1-c1ccc(OC(F)(F)F)cc1 [Sonidegib] (max concentration tested 10000 nM)
percent inhibition of viability [%]
Details | 1 nM | 10 nM | 100 nM | 1000 nM | 10000 nM
DERL-7 (IL-2 2.5 ng/mL) [14] | -6.39 | 0.97 | 3.22 | 7.44 | 7.71
IMC-1 (IL-2 20 ng/mL) [13] | -2.05 | 0.95 | 10.7 | 7.33 | 66.2
KAI3 (IL-2 2.5 ng/mL) [6] | -9.76 | 2.17 | -0.83 | -2.67 | 26.2
KHYG-1 (IL-2 2.5 ng/mL) [4] | 1.09 | -0.52 | 4.83 | 5.39 | 33.4
NK-92 (IL-2 2.5 ng/mL) [7] | 5.8 | 1.52 | 11.2 | 33.5 | 79.3
NK-YS (IL-2 2.5 ng/mL) [3] | -0.38 | 2.73 | 7.41 | 11.1 | 31.1
NKL (IL-2 2.5 ng/mL) [10] | -6.67 | 3.73 | -0.64 | 6.28 | 26.8
SNK-6 (IL-2 2.5 ng/mL) [15] | 4.68 | 24.7 | 23.1 | 15.3 | 25.6
YT (IL-2 2.5 ng/mL) [11] | 1.1 | 5.23 | 7.91 | 6.65 | 37
[1] | -1.35 | -1.33 | -0.97 | 6.62 | 11.9
[5] | -16.4 | -5.96 | 3.9 | -2.57 | -0.38
[8] | 7.84 | -5.48 | 2.43 | -23.8 | -13.6
[9] | 2.22 | -1.01 | 1.87 | -6.02 | -0.78
[12] | -5.58 | -3.94 | 1.51 | -3.08 | -2.7

Details | drug sensitivity score
DERL-7 (IL-2 2.5 ng/mL) [27] | 0
IMC-1 (IL-2 20 ng/mL) [26] | 4.85
KAI3 (IL-2 2.5 ng/mL) [19] | 0.87
KHYG-1 (IL-2 2.5 ng/mL) [17] | 2.43
NK-92 (IL-2 2.5 ng/mL) [20] | 8.23
NK-YS (IL-2 2.5 ng/mL) [16] | 2.3
NKL (IL-2 2.5 ng/mL) [23] | 2.01
SNK-6 (IL-2 2.5 ng/mL) [28] | 10.6
YT (IL-2 2.5 ng/mL) [24] | 2.89
[2] | 0.28
[18] | 0
[21] | 0
[22] | 0
[25] | 0
